Key:
mPGES-1 Mouse enzyme = molecular target: T1, mPGES-1 Mouse enzyme (Mus musculus, UniProt Q9JM51); test: mPGES-1 enzyme activity assay (PGE2 enzyme immunoassay), mouse enzyme; type: biochemical; conditions: for inhibition at 10 µM: compound at a concentration of 10 μM, read-out: % inhibition of the compound against mPGES-1, Mouse enzyme; for IC50: recombinant microsomal enzyme, means ± SD, triplicate, read-out: IC50 against mPGES-1, Mouse enzyme
T1 construct: made in house; host or cells: FreeStyle 293-F cells, crude microsomal preparation
T1 sequence (Q9JM51 1-153): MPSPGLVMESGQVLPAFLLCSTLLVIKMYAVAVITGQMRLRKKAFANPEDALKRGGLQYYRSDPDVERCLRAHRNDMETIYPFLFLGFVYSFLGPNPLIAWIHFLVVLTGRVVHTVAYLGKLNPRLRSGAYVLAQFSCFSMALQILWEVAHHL
Protocol: (§1) Studies were conducted to characterize the inhibitory activity against recombinant mPGES-1 of the compounds synthesized in accordance with Examples 1-4, and disclosed herein.
(§2) Briefly, FreeStyle 293-F cells were cultured following manufacturer's manual in FreeStyle 293 expression medium on orbit rotate shaker in 8% CO2 incubator at 37° C. Cells were transfected with 1.5 μg/mL of mPGES-1/pcDNA3 construct using FreeStyle Max reagent at a cell density of 1×10^6 for 2 days. Transfected cells were collected, washed, and sonicated in TSES buffer (15 mM Tris-HCl, pH 8.0 plus 0.25 M sucrose, 0.1 mM EDTA and 1 mM DTT) on ice. The broken cells were first centrifuged at 12,500×g for 10 min. The supernatant was further centrifuged at 105,000×g for 1 hr at 4° C. The pellet was washed and homogenized in PBS buffer. The crude microsomal mPGES-1 preparation was aliquoted and stored at −80° C. The crude protein concentration was 8 mg/mL.
(§3) The enzyme activity assays were performed on ice in 1.5 ml microfuge tubes by using the expressed mPGES-1. The reaction mixture contained: 0.2 M Na2HPO4/NaH2PO4, pH 7.2, 10 μL; 0.1 M GSH, 2.5 μL; diluted microsomal enzyme (80 μg/mL), 1 μL; PGH2 (0.31 mM in DMF), 5 μL; 1 μL inhibitor; and H2O in a final reaction volume of 100 μL. PGH2 was stored in dry ice and used to initiate the reaction.
(§4) Compounds were incubated with the enzyme for 15 min at room temperature before the addition of cold PGH2 (1 μM final) to initiate the enzyme reaction. After 30 s, 10 μL of SnCl2 (40 mg/mL) in ethanol was added to stop the reaction. The nonenzymatic conversion of PGH2 to PGE2 was performed in the same buffer devoid of enzyme. The reaction mixture was placed on ice until PGE2 production was determined by the PGE2 enzyme immunoassay as described earlier. IC50 values of the inhibitors were calculated by using the GraphPad Prism 4.0 program. The results are set forth in the tables provided in Examples 7-10.

mPGES-1 = molecular target: T2, mPGES-1 (Homo sapiens, UniProt O14684); test: mPGES-1 enzyme activity assay (PGE2 enzyme immunoassay), human enzyme; type: biochemical; parameters: made in house; host or cells: FreeStyle 293-F cells, crude microsomal preparation; conditions: for IC50: recombinant microsomal enzyme, means ± SD, triplicate, read-out: IC50 against mPGES-1, Human enzyme
T2 sequence (O14684 1-152): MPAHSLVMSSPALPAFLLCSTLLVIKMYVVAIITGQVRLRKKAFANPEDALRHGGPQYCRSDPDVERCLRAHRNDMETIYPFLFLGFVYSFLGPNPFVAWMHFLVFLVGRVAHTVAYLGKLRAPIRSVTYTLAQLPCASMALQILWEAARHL
Protocol: as §1, §2, §3, §4

Structure (SMILES)	inhibition at 10 µM (mPGES-1 Mouse enzyme) [%]	IC50 (mPGES-1) [nM]	IC50 (mPGES-1 Mouse enzyme) [nM]	inhibition at 10 µM (mPGES-1; compound at a concentration of 10 μM, read-out: % inhibition of the compound against mPGES-1, Human enzyme) [%]
CCCCCN1C(=O)/C(=C2\SC(=O)N(CC(=O)O)C2=O)c2ccccc21 [II-12]	35	1660 ± 168	–	–
CCCCCCN1C(=O)/C(=C2\SC(=O)N(CC(=O)O)C2=O)c2ccccc21 [II-13]	57	1070 ± 116	–	–
CCCCCCCN1C(=O)/C(=C2\SC(=O)N(CC(=O)O)C2=O)c2ccccc21 [II-14]	67	324 ± 44	–	–
CCCCCCCCN1C(=O)/C(=C2\SC(=O)N(CC(=O)O)C2=O)c2ccccc21 [II-15]	–	314 ± 44	2680 ± 302	–
CCCCCCCCCN1C(=O)/C(=C2\SC(=O)N(CC(=O)O)C2=O)c2ccccc21 [II-16]	–	199 ± 32	1400 ± 217	–
CCCCCCCCCCN1C(=O)/C(=C2\SC(=O)N(CC(=O)O)C2=O)c2ccccc21 [II-17]	–	217 ± 30	935 ± 135	–
O=C(O)CN1C(=O)S/C(=C2\C(=O)N(CC3CCCCC3)c3ccc(-c4ccccc4)cc32)C1=O [II-18]	–	221 ± 47	394 ± 58	–
O=C(O)CN1C(=O)S/C(=C2\C(=O)N(CC3CCCCC3)c3ccc(-c4ccc(-c5ccccc5)cc4)cc32)C1=O [II-19]	–	154 ± 20	1020 ± 162	–
O=C(O)CN1C(=O)S/C(=C2\C(=O)N(CC3CCCCC3)c3ccc(-c4ccc5ccccc5c4)cc32)C1=O [II-20]	–	531 ± 90	244 ± 31	–
O=C(O)CN1C(=O)S/C(=C2\C(=O)N(CC3CCCCC3)c3ccc(-c4ccc(C#Cc5ccccc5)cc4)cc32)C1=O [II-21]	–	91 ± 23	1960 ± 348	–
O=C(O)CN1C(=O)S/C(=C2\C(=O)N(CC3CCCCC3)c3ccc(-c4ccc(C#CC5CCCCC5)cc4)cc32)C1=O [II-22]	–	25 ± 5	685 ± 406	–
O=C(O)CN1C(=O)S/C(=C2\C(=O)Nc3ccc(-c4ccccc4)cc32)C1=O [II-23]	63	8020 ± 1050	–	–
O=C(O)CN1C(=O)S/C(=C2\C(=O)N(CCC3CCCCC3)c3ccc(-c4ccccc4)cc32)C1=O [II-24]	–	32 ± 6	777 ± 364	–
O=C(O)CN1C(=O)S/C(=C2\C(=O)N(CCCC3CCCCC3)c3ccc(-c4ccccc4)cc32)C1=O [II-25]	–	16 ± 4	1220 ± 430	–
O=C(O)CN1C(=O)S/C(=C2\C(=O)N(CCCCC3CCCCC3)c3ccc(-c4ccccc4)cc32)C1=O [II-26]	–	13 ± 3	1130 ± 244	–
O=C(O)CN1C(=O)S/C(=C2\C(=O)N(Cc3ccc(Cl)cc3)c3ccc(-c4ccccc4)cc32)C1=O [II-27]	–	54 ± 14	13200 ± 5080	–
O=C1NC(=O)/C(=C2/C(=O)N(CCCC3CCCCC3)c3ccccc32)S1 [II-28]	0	1390 ± 273	–	–
O=C1NC(=S)S/C1=C1\C(=O)N(CCCC2CCCCC2)c2ccccc21 [II-29]	29	1260 ± 335	–	–
O=C(O)CN1C(=O)/C(=C2\SC(=S)NC2=O)c2ccccc21 [II-30]	6.1	211 ± 67	–	–
O=C(O)CN1C(=O)/C(=C2\SC(=O)N(CCCCc3ccccc3)C2=O)c2ccccc21 [II-31]	64	962 ± 159	–	–
O=C(O)CN1C(=O)/C(=C2\SC(=O)N(CCCCC3CCCCC3)C2=O)c2ccccc21 [II-32]	44	2560 ± 442	–	–
O=C(CCCN1C(=O)C=CC1=O)Nc1ccc2c(c1)Cc1ccccc1-2 [III-01]	48	1920 ± 300	–	–
O=C(CCCCCN1C(=O)C=CC1=O)Nc1ccc2c(c1)Cc1ccccc1-2 [III-02]	–	613 ± 103	2880 ± 496	–
O=C(CCCN1C(=O)C=CC1=O)Nc1ccc(OCCCC2CCCCC2)cc1 [III-03]	55	–	–	63
O=C1S/C(=C\c2ccc(Oc3cc([N+](=O)[O-])c([N+](=O)[O-])cc3F)c([N+](=O)[O-])c2)C(=O)N1CCCCC1CCCCC1 [IV-01]	91	296 ± 48	–	–

From patent US12030877B2, “Prostaglandin E synthase inhibitors and methods for utilizing the same” (University of Kentucky Research Foundation, priority 2016, dated 2024)
